In PubChem BioAssay (NCI):
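Protocol summary: plate cells (96-well), add compound at 5 concentrations, incubate 48 h, interpolate endpoints linearly. The concentration for full growth arrest is given as TGI.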

Assays:
Test in all cases: NCI-60 cell line screen, 48 h
786-0 renal = tested on: 786-0 renal
A498 renal = tested on: A498 renal
A549 NSCLC = tested on: A549 NSCLC
ACHN renal = tested on: ACHN renal
BT-549 breast = tested on: BT-549 breast
CAKI-1 renal = tested on: CAKI-1 renal
CCRF-CEM leukemia = tested on: CCRF-CEM leukemia
COLO 205 colon = tested on: COLO 205 colon
DU-145 prostate = tested on: DU-145 prostate
EKVX NSCLC = tested on: EKVX NSCLC
HCC-2998 colon = tested on: HCC-2998 colon
HCT-116 colon = tested on: HCT-116 colon
HCT-15 colon = tested on: HCT-15 colon
HL-60(TB) leukemia = tested on: HL-60(TB) leukemia
HOP-62 NSCLC = tested on: HOP-62 NSCLC
HOP-92 NSCLC = tested on: HOP-92 NSCLC
HS 578T breast = tested on: HS 578T breast
HT29 colon = tested on: HT29 colon
IGROV1 ovarian = tested on: IGROV1 ovarian
K-562 leukemia = tested on: K-562 leukemia
KM12 colon = tested on: KM12 colon
LOX IMVI melanoma = tested on: LOX IMVI melanoma
M14 melanoma = tested on: M14 melanoma
MALME-3M melanoma = tested on: MALME-3M melanoma
MCF7 breast = tested on: MCF7 breast
MDA-MB-231 breast = tested on: MDA-MB-231 breast
MDA-MB-435 = tested on: MDA-MB-435
MDA-N = tested on: MDA-N
MOLT-4 leukemia = tested on: MOLT-4 leukemia
NCI-H226 lung = tested on: NCI-H226 lung
NCI-H23 lung = tested on: NCI-H23 lung
NCI-H460 lung = tested on: NCI-H460 lung
NCI-H522 lung = tested on: NCI-H522 lung
NCI/ADR-RES ovarian = tested on: NCI/ADR-RES ovarian
OVCAR-3 ovarian = tested on: OVCAR-3 ovarian
OVCAR-4 ovarian = tested on: OVCAR-4 ovarian
OVCAR-5 ovarian = tested on: OVCAR-5 ovarian
OVCAR-8 ovarian = tested on: OVCAR-8 ovarian
PC-3 prostate = tested on: PC-3 prostate
RPMI-8226 leukemia = tested on: RPMI-8226 leukemia
RXF 393 renal = tested on: RXF 393 renal
SF-268 CNS = tested on: SF-268 CNS
SF-295 CNS = tested on: SF-295 CNS
SF-539 CNS = tested on: SF-539 CNS
SK-MEL-2 melanoma = tested on: SK-MEL-2 melanoma
SK-MEL-28 melanoma = tested on: SK-MEL-28 melanoma
SK-MEL-5 melanoma = tested on: SK-MEL-5 melanoma
SK-OV-3 ovarian = tested on: SK-OV-3 ovarian
SN12C renal = tested on: SN12C renal
SNB-19 CNS = tested on: SNB-19 CNS
SNB-75 CNS = tested on: SNB-75 CNS
SR leukemia = tested on: SR leukemia
SW-620 colon = tested on: SW-620 colon
T-47D breast = tested on: T-47D breast
TK-10 renal = tested on: TK-10 renal
UACC-257 melanoma = tested on: UACC-257 melanoma
UACC-62 melanoma = tested on: UACC-62 melanoma
UO-31 renal = tested on: UO-31 renal
U251 CNS = tested on: U251 CNS

## CCOc1cc(NC(C)=O)ccc1C(=O)NN1C(=O)C(Cl)C1c1ccc(O)c(OC)c1 (stereo unspecified)
786-0 renal
  TGI: 26 µM
A498 renal
  TGI: 28.4 µM
A549 NSCLC
  TGI: 32.5 µM
ACHN renal
  TGI: 30.3 µM
BT-549 breast
  TGI: 21.9 µM
CAKI-1 renal
  TGI: 31.4 µM
CCRF-CEM leukemia
  TGI: 25.8 µM
COLO 205 colon
  TGI: 35.1 µM
DU-145 prostate
  TGI: 29 µM
EKVX NSCLC
  TGI: 31.5 µM
HCC-2998 colon
  TGI: 32.2 µM
HCT-116 colon
  TGI: 37.7 µM
HCT-15 colon
  TGI: 29.9 µM
HL-60(TB) leukemia
  TGI: 38.3 µM
HOP-62 NSCLC
  TGI: 35.8 µM
HOP-92 NSCLC
  TGI: 32.3 µM
HS 578T breast
  TGI: 51.5 µM
HT29 colon
  TGI: 31.9 µM
IGROV1 ovarian
  TGI: 28.2 µM
K-562 leukemia
  TGI: 25.1 µM
KM12 colon
  TGI: 33.6 µM
LOX IMVI melanoma
  TGI: 7.79 µM
M14 melanoma
  TGI: 28.1 µM
MALME-3M melanoma
  TGI: 22 µM
MCF7 breast
  TGI: 30.4 µM
MDA-MB-231 breast
  TGI: 26.9 µM
MDA-MB-435
  TGI: 29.8 µM
MDA-N
  TGI: 31.9 µM
MOLT-4 leukemia
  TGI: 19 µM
NCI-H226 lung
  TGI: 48.3 µM
NCI-H23 lung
  TGI: 25.4 µM
NCI-H460 lung
  TGI: 33.1 µM
NCI-H522 lung
  TGI: 22.8 µM
NCI/ADR-RES ovarian
  TGI: 57.4 µM
OVCAR-3 ovarian
  TGI: 38.5 µM
OVCAR-4 ovarian
  TGI: 31.6 µM
OVCAR-5 ovarian
  TGI: 33.9 µM
OVCAR-8 ovarian
  TGI: 82.3 µM
PC-3 prostate
  TGI: 28.3 µM
RPMI-8226 leukemia
  TGI: 40.5 µM
RXF 393 renal
  TGI: 29.2 µM
SF-268 CNS
  TGI: 35.9 µM
SF-295 CNS
  TGI: 39.1 µM
SF-539 CNS
  TGI: 26.8 µM
SK-MEL-2 melanoma
  TGI: 33.5 µM
SK-MEL-28 melanoma
  TGI: 38.2 µM
SK-MEL-5 melanoma
  TGI: 22.8 µM
SK-OV-3 ovarian
  TGI: 33.6 µM
SN12C renal
  TGI: 31 µM
SNB-19 CNS
  TGI: 29.5 µM
SNB-75 CNS
  TGI: 24.1 µM
SR leukemia
  TGI: 19.5 µM
SW-620 colon
  TGI: 60.1 µM
T-47D breast
  TGI: 30.8 µM
TK-10 renal
  TGI: 11.5 µM
UACC-257 melanoma
  TGI: 27 µM
UACC-62 melanoma
  TGI: 25.5 µM
UO-31 renal
  TGI: 11.1 µM

## COc1ccc(/C=C/C(=O)c2cccc(C(=O)/C=C/c3ccc(OC)c(OC)c3)n2)cc1OC
786-0 renal
  TGI: 27.5 µM
A498 renal
  TGI: > 100 µM
A549 NSCLC
  TGI: > 100 µM
ACHN renal
  TGI: > 100 µM
BT-549 breast
  TGI: 44.9 µM
CAKI-1 renal
  TGI: > 100 µM
CCRF-CEM leukemia
  TGI: 6.29 µM
COLO 205 colon
  TGI: > 100 µM
DU-145 prostate
  TGI: > 100 µM
EKVX NSCLC
  TGI: > 100 µM
HCC-2998 colon
  TGI: > 100 µM
HCT-116 colon
  TGI: 27.6 µM
HCT-15 colon
  TGI: 55 µM
HL-60(TB) leukemia
  TGI: 92.2 µM
HOP-62 NSCLC
  TGI: > 100 µM
HOP-92 NSCLC
  TGI: > 100 µM
HS 578T breast
  TGI: > 95.5 µM
HT29 colon
  TGI: 31.6 µM
IGROV1 ovarian
  TGI: > 95.5 µM
K-562 leukemia
  TGI: > 100 µM
KM12 colon
  TGI: > 100 µM
LOX IMVI melanoma
  TGI: 10.6 µM
M14 melanoma
  TGI: > 79.8 µM
MALME-3M melanoma
  TGI: 70.5 µM
MCF7 breast
  TGI: > 100 µM
MDA-MB-231 breast
  TGI: 70.6 µM
MDA-MB-435
  TGI: > 100 µM
MDA-N
  TGI: 34.8 µM
NCI-H226 lung
  TGI: > 100 µM
NCI-H23 lung
  TGI: > 100 µM
NCI-H460 lung
  TGI: > 100 µM
NCI-H522 lung
  TGI: 23.1 µM
NCI/ADR-RES ovarian
  TGI: > 86.8 µM
OVCAR-3 ovarian
  TGI: > 100 µM
OVCAR-4 ovarian
  TGI: > 100 µM
OVCAR-5 ovarian
  TGI: > 91.2 µM
OVCAR-8 ovarian
  TGI: 18.3 µM
PC-3 prostate
  TGI: > 100 µM
RPMI-8226 leukemia
  TGI: > 22.6 µM
RXF 393 renal
  TGI: > 86.1 µM
SF-268 CNS
  TGI: > 89.3 µM
SF-295 CNS
  TGI: > 100 µM
SF-539 CNS
  TGI: 38.4 µM
SK-MEL-2 melanoma
  TGI: > 100 µM
SK-MEL-28 melanoma
  TGI: 45 µM
SK-MEL-5 melanoma
  TGI: > 100 µM
SK-OV-3 ovarian
  TGI: > 100 µM
SN12C renal
  TGI: 30.1 µM
SNB-19 CNS
  TGI: 99.1 µM
SNB-75 CNS
  TGI: > 100 µM
SR leukemia
  TGI: > 25.9 µM
SW-620 colon
  TGI: 15.9 µM
T-47D breast
  TGI: > 100 µM
TK-10 renal
  TGI: > 100 µM
U251 CNS
  TGI: > 55.7 µM
UACC-257 melanoma
  TGI: 99.4 µM
UACC-62 melanoma
  TGI: > 57.4 µM
UO-31 renal
  TGI: 43.4 µM
